Measured values from ChEMBL document CHEMBL5728228, “Inhibitors of cyclin-dependent kinases” (2021).

Assay: Protein kinase assay (Condition B: Thiol-free Conditions): The IC50 profile of compounds was determined using one protein kinase in a customized, thiol free assay. […] Prior to testing, the 1×10−03 M stock solutions in column 2 of the master plates were subjected to a serial, semi-logarithmic dilution using 100% DMSO as a solvent. […] Column 1 and 7 were filled with 100% DMSO as controls. Subsequently, 2×10 microliter from each well of the serial diluted copy plates were aliquoted with a 96 channel pipettor into two identical sets of “compound dilution plates”. All plates were barcoded for automated identification and tracking purposes. […] All compounds were stored as powder until being solubilized in DMSO. Solubilized compounds were stored as 1×10−02 M/100% DMSO stock solutions. Prior to the assay process, 90 microliters of H2O were added to each well of a set of compound dilution plates. To minimize potential precipitation, the H2O was added to each plate only a few minutes before the transfer of the compound solutions into the assay plates. Each plate was shaken thoroughly, resulting in compound dilution plates with a final of 10% DMSO. For each assay, 5 microliters of solution from each well of the compound dilution plates/10% DMSO were transferred into the assay plate. The final volume of the assay was 50 μl. All compounds were tested at 10 final assay concentrations in the range from 1×10−05 M to 3×10−10 M, in singlicate. The final DMSO concentration in the reaction cocktails was 1% in all cases. A radiometric protein kinase assay (33PanQinase® Activity Assay) was used for measuring the kinase activity of the protein kinase. All kinase assays were performed in 96-well FlashPlates™ from PerkinElmer (Boston, Mass., USA) in a 50 microliter reaction volume. The reaction cocktail was pipetted in four steps in the following order: 20 microliter of assay buffer (standard buffer)·5 microliter of ATP solution (in H2O)·5 microliter of test compound (in 10% DMSO)·20 microliter enzyme/substrate mix. […] For all experiments labeled as “Thiol-free”, all glutathione was exchanged from protein preparations so as to be removed from the assay and final buffer conditions contained no thiol-containing reagents. This was done so there would be no interference with the key cysteines in the proteins of interest.

Compound | IC50
C=CC(=O)Nc1ccc(C(=O)N2CC[C@@H](Nc3ncc(Cl)c(OC)n3)C2)cc1C | < 0.1 µM
C=CC(=O)Nc1ccc(C(=O)N2CC[C@@H](Nc3cc(OC)c(Cl)cn3)C2)cc1 | < 0.1 µM
CCC(=O)Nc1ccc(C(=O)N2CC[C@@H](Nc3ncc(Br)c(OC)n3)C2)cc1 | < 0.1 µM
C=CC(=O)Nc1ccc(C(=O)N2CC[C@@H](Nc3ncc(Br)cn3)C2)cc1 | < 0.1 µM
C=CC(=O)Nc1ccc(C(=O)N2CC[C@@H](Nc3ncc(Br)c(OC)n3)C2)cc1 | < 0.1 µM

Second part, the molecule after the results:

IC50 | Compound
< 0.1 µM | C=CC(=O)N(C)c1ccc(C(=O)N2CC[C@@H](Nc3ncc(Cl)c(OC)n3)C2)cc1
< 0.1 µM | C=CC(=O)Nc1ccc(C(=O)N2CC[C@@H](Nc3ncc(Cl)c(OC)n3)C2)cc1
